The values that follow come from patent EP4796129A1, “ANTI-NECTIN-4 ANTIBODY-DRUG CONJUGATE COMPRISING CAMPTOTHECIN DERIVATIVE” (Celltrion, Inc., priority 2023, dated 2025).

The test system of one assay is T47D human breast cancer. The assay can be described thus: Xenograft model of T47D human breast cancer (xxT47D) in BALB/c nude mice. To be noted: 50 mg/kg p.o. QD x 4 weeks. The class given is in vivo, female BALB/c nude mice. For orientation: A xenograft is tissue or cells of one species grown in another, often human tumour cells in immunodeficient mice.
Assay [1] deals with PC-3 (a prostate cancer cell line). The assay can be described thus: In-vitro cell viability assay (CellTiter-Glo). The class given is cell-based. A general note: Cellular ATP, detected with luciferase, serves as a proxy for viable cell number.
Assay [2] has as its system SUM190PT (a breast cancer cell line). The assay can be described thus: In-vitro cell viability assay (CellTiter-Glo). The class given is cell-based.
The test system of assay [3] is T47D (a breast cancer cell line). Nature of the assay: cells. To be noted: Homo sapiens.
Protocol: Specifically, the cell lines described in Table 5 were seeded per well in a 96-well plate and incubated at room temperature (37°C, 5% CO2). After 24 hours, the cells were treated with 100 µL of payload compounds or ADC drugs at 9 concentrations (a 4-fold serial dilution starting from 1,000 nM). In particular, a control group (drug concentration 0), which is an untreated group, was also prepared. After 6 days of incubation (37°C, 5% CO2), 100 µL of CellTiter-Glo reagent (CellTiter-Glo® Luminescent Cell Viability Assay kit (Promega, G7571)) was added to each well and pipetted. Fluorescence was measured after incubation at room temperature (RT) for 10 minutes.
The subject of assay [4] is bladder cancer xenograft model (BL9200). The assay can be described thus: HuPrime bladder cancer xenograft model (BL9200) in NOD/SCID mice. The class given is in vivo, NOD/SCID strain female mice. The following applies: for Tumor Volume (mean ± SEM), Day 25: number of mice in brackets.

`CC(=O)c1c(C)c2cnc(Nc3ccc(N4CCNCC4)cn3)nc2n(C2CCCC2)c1=O` [Palbociclib]: the “Tumor Weight (g) on Day 28, mean ± SEM” value with T47D human breast cancer is on record as 0.396 ± 0.047 g. The “Tumor Volume (mm^3), mean ± SEM” value with T47D human breast cancer (day 3) amounted to 249 ± 17 mm^3; in the assay with T47D human breast cancer (day 7), 290 ± 22 mm^3; in the assay on T47D human breast cancer (day 10) it was 328 ± 23 mm^3; in the assay on T47D human breast cancer (day 14), 342 ± 26 mm^3; with T47D human breast cancer (day 17), 344 ± 29 mm^3; with T47D human breast cancer (day 21) it was 360 ± 36 mm^3. The “Tumor Volume (mm^3), mean ± SEM” value in the assay on T47D human breast cancer (day 24) is listed as 384 ± 42 mm^3; with T47D human breast cancer (day 28) it was 407 ± 49 mm^3. Also, the “T/Cweight (%)” value in the assay with T47D human breast cancer (day 28) turned out to be 41.79%. Moreover, the “TGI (%)” value with T47D human breast cancer (day 28) is given as 70.93%. In addition, the “T/C (%)” value in the assay with T47D human breast cancer (tumor volume day 28 vs control G1) is on record as 43.63%.

The term IC50 denotes the point on the concentration scale where inhibition reaches its midpoint. A low value points to higher potency. In the case of `CC[C@@]1(O)C(=O)OCc2c1cc1n(c2=O)Cc2c-1nc1cc3c(c4c1c2[C@@H](NC(=O)[C@@H](C)O)CC4)OCO3` [PBX-7016], the results for the IC50 in assay [1], in assay [2] and in assay [3] were 3.51 nM, 9.4 nM and 0.47 nM, respectively.

With `CC[C@@]1(O)C(=O)OCc2c1cc1n(c2=O)Cc2c-1nc1cc(F)c(C)c3c1c2[C@@H](N)CC3` [Exatecan, reference compound], the results for the IC50 in assay [1] and in assay [2] were 0.62 nM and 2.3 nM, respectively.

Turning to “PADCEV: ADC in which anti-Nectin4 mAb and MMAE are linked by an mc-vc-PAB linker [reference compound]”, in assay [4] (5 mg/kg i.v. QW × 3wks), the “TGI (%), Day 25” value stood at 108.4%; the “ΔT/ΔC (%), Day 25” value is -8.4%; the “Tumor Volume (mean ± SEM), Day 25” value is recorded as 27.26 +/- 2.75(10) mm^3. For the same molecule, in assay [4] (10 mg/kg i.v. QW × 3wks), the “TGI (%), Day 25” value is on record as 109.4%; the “ΔT/ΔC (%), Day 25” value is listed as -9.4%; the “Tumor Volume (mean ± SEM), Day 25” value is 11.07 +/- 3.12(10) mm^3.
